7 compounds from US12012396B2, “HDAC inhibitor solid state forms” (Viracta Subsidiary, Inc., priority 2020, dated 2024) can be followed below.

The nature of series [1]: Static storage stability at elevated temperature/humidity (XRPD, HPLC purity). It counts as physicochemical. As to the method:
XRPD diffractograms were collected on a Bruker D8 diffractometer using Cu Kα, radiation (40 kV, 40 mA) and a 0-20 goniometer fitted with a Ge monochromator. The incident beam passes through a 2.0 mm divergence slit followed by a 0.2 mm anti-scatter slit and knife edge. The diffracted beam passes through an 8.0 mm receiving slit with 2.5° Soller slits followed by the Lynxeye Detector. The software used for data collection and analysis was Diffrac Plus XRD Commander and Diffrac Plus EVA respectively.
XRPD diffractograms were collected on a PANalytical Empyrean diffractometer using Cu Kα, radiation (45 kV, 40 mA) in transmission geometry. A 0.5° slit, 4 mm mask and 0.04 rad Soller slits with a focusing mirror were used on the incident beam. A PIXcel3D detector, placed on the diffracted beam, was fitted with a receiving slit and 0.04 rad Soller slits. The software used for data collection was X'Pert Data Collector using X'Pert Operator Interface. The data were analyzed and presented using Diffrac Plus EVA or HighScore Plus.
Purity analysis was performed on an AgilentHP1100/Infinity 111260 series system equipped with a diode array detector and using OpenLAB software.

Series [2] is described as follows: Gravimetric Vapour Sorption (GVS). It counts as physicochemical. The following applies: for XRPD post-GVS: residue after GVS. As to the method: Sorption isotherms were obtained using a SMS DVS Intrinsic moisture sorption analyser, controlled by DVS Intrinsic Control software. The sample temperature was maintained at 25° C. by the instrument controls. The humidity was controlled by mixing streams of dry and wet nitrogen, with a total flow rate of 200 ml/min. The relative humidity was measured by a calibrated Rotronic probe (dynamic range of 1.0-100% RH), located near the sample. The weight change, (mass relaxation) of the sample as a function of % RH was constantly monitored by a microbalance (accuracy ±0.005 mg). Typically, 20-30 mg of sample was placed in a tared mesh stainless steel basket under ambient conditions. The sample was loaded and unloaded at 40% RH and 25° C. (typical room conditions). A moisture sorption isotherm was performed as outlined below (2 scans per complete cycle). The standard isotherm was performed at 25° C. at 10% RH intervals over a 0-90% RH range. Typically, a double cycle (4 scans) was carried out. Data analysis was carried out within Microsoft Excel using the DVS Analysis Suite. [table]

[3] abbreviates: 7 days / 1 week at 25° C./97% RH.
The mark [4] stands for this setting: 7 days / 1 week at 40° C./75% RH.

“Also recorded” adds a separate entry of the source. Counter-ions that a name gives are not always drawn.

Take `O=C(NO)c1cnc(N2C[C@@H]3[C@H](C2)[C@H]3NCc2ccc3cc(F)ccc3n2)nc1` [Mesylate Form 2, N-hydroxy 2-{6-[(6-fluoro-quinolin-2-ylmethyl)-amino]-3-aza-bicyclo[3.1.0]hex-3-yl}pyrimidine-5-carboxamide]: the “HPLC purity after static storage” value in series [1] (setting [3]) and in series [1] (setting [4]) was 99.5% each time. The “Solid form by XRPD after static storage” value in series [1] (setting [3]) is recorded as “unchanged; also recorded: Mesylate Form 2”; in series [1] (7 days / 1 week at 25° C./97% RH, listed as Form 2), “stable”; in series [1] (setting [4]), “unchanged; also recorded: Mesylate Form 2”; in series [1] (7 days / 1 week at 40° C./75% RH, listed as Form 2), “stable”. The “XRPD post-GVS” value in series [2] was “unchanged; also recorded: XRPD Post-GVS: Mesylate Form 2”.

For the compound `O=C(NO)c1cnc(N2C[C@@H]3[C@H](C2)[C@H]3NCc2ccc3cc(F)ccc3n2)nc1` [Mesylate Form 4, N-hydroxy 2-{6-[(6-fluoro-quinolin-2-ylmethyl)-amino]-3-aza-bicyclo[3.1.0]hex-3-yl}pyrimidine-5-carboxamide], the “Solid form by XRPD after static storage” value in series [1] (setting [3]) was “conversion to Mesylate Form 1; also recorded: converted to Mesylate Form 1”; in series [1] (setting [4]), “mixture of Mesylate Form 1 and Form 4”. The “Hysteresis in GVS” value in series [2] (RH range of hysteresis) was “displaying hysteresis loop”. For the same compound, the “Water content loss, desorption cycle 1” value in series [2] (between 20 to 10% RH) is given as around 9%. In addition, in series [2], the “XRPD post-GVS” value is recorded as “conversion to Mesylate Form 1; also recorded: Post-GVS: Converted to Mesylate Form 1 by XRPD”.

Consider `O=C(NO)c1cnc(N2C[C@@H]3[C@H](C2)[C@H]3NCc2ccc3cc(F)ccc3n2)nc1` [Mesylate Form 6, N-hydroxy 2-{6-[(6-fluoro-quinolin-2-ylmethyl)-amino]-3-aza-bicyclo[3.1.0]hex-3-yl}pyrimidine-5-carboxamide], for which the “Solid form by XRPD after static storage” value in series [1] (setting [3]) and in series [1] (setting [4]) was “converted to Mesylate Form 1” throughout.

For `O=C(NO)c1cnc(N2C[C@@H]3[C@H](C2)[C@H]3NCc2ccc3cc(F)ccc3n2)nc1` [Mesylate Form 7, N-hydroxy 2-{6-[(6-fluoro-quinolin-2-ylmethyl)-amino]-3-aza-bicyclo[3.1.0]hex-3-yl}pyrimidine-5-carboxamide], the “Solid form by XRPD after static storage” value in series [1] (setting [3]) and in series [1] (setting [4]) was “converted to Mesylate Form 1” in each case.

For the compound `O=C(NO)c1cnc(N2C[C@@H]3[C@H](C2)[C@H]3NCc2ccc3cc(F)ccc3n2)nc1` [Mesylate Form 8, N-hydroxy 2-{6-[(6-fluoro-quinolin-2-ylmethyl)-amino]-3-aza-bicyclo[3.1.0]hex-3-yl}pyrimidine-5-carboxamide], the “Solid form by XRPD after static storage” value in series [1] (setting [3]) and in series [1] (setting [4]) was “converted to Mesylate Form 1” throughout.

Take `O=C(NO)c1cnc(N2C[C@@H]3[C@H](C2)[C@H]3NCc2ccc3cc(F)ccc3n2)nc1` [Mesylate Form 9, N-hydroxy 2-{6-[(6-fluoro-quinolin-2-ylmethyl)-amino]-3-aza-bicyclo[3.1.0]hex-3-yl}pyrimidine-5-carboxamide]: the “Appearance after static storage” value was “Sample appeared wet - white solid still present” in series [1] (1 week at 25° C./97% RH) and “color change to yellow; also recorded: Sample appeared ‘damp’ - yellow solid present” in series [1] (1 week at 40° C./75% RH). Further, the “Solid form by XRPD after static storage” value is “Poorly crystalline - Mesylate Form 1” in series [1] (setting [3]) and “Mesylate Form 1” in series [1] (setting [4]).

On to `O=C(NO)c1cnc(N2C[C@@H]3[C@H](C2)[C@H]3NCc2ccc3cc(F)ccc3n2)nc1` [amorphous mesylate salt, N-hydroxy 2-{6-[(6-fluoro-quinolin-2-ylmethyl)-amino]-3-aza-bicyclo[3.1.0]hex-3-yl}pyrimidine-5-carboxamide], for which the “Solid form by XRPD after static storage” value is reported as “largely amorphous” in series [1] (7 days / 1 week at 25° C./97% RH, listed as amorphous) and “largely amorphous” in series [1] (7 days / 1 week at 40° C./75% RH, listed as amorphous).
